Assay results from patent publication US10633342B2, “Inhibitors of indoleamine 2,3-dioxygenase and methods of their use” (BRISTOL-MYERS SQUIBB COMPANY, priority 2016, dated 2020).

Target: T1, human IDO1 (Homo sapiens, UniProt P14902)
T1 construct: expressed in transfected cells
Experiment: HEK Human IDO-1 inhibition assay (kynurenine, Ehrlich reagent, absorbance 490 nm)
Assay type: cell-based
Settings: human IDO1/HEK293 cells, 20 hours incubation; read-out: HEK Human IDO-1 Bio Activity (IDO IC50)
Description: HEK293 cells were transfected with a pCDNA-based mammalian expression vector harboring human IDO1 cDNA (NM 002164.2) by electroporation. They were cultured in medium (DMEM with 10% FBS) containing 1 mg/ml G418 for two weeks. Clones of HEK293 cells that stably expressed human IDO1 protein were selected and expanded for IDO inhibition assay.
The human IDO1/HEK293 cells were seeded at 10,000 cells per 50 μL per well with RPMI/phenol red free media contains 10% FBS in a 384-well black wall clear bottom tissue culture plate (Matrix Technologies LLC) 100 nL of certain concentration of compound was then added to each well using ECHO liquid handling systems. The cells were incubated for 20 hours in 37° C. incubator with 5% CO2.
The compound treatments were stopped by adding trichloroacetic acid (Sigma-Aldrich) to a final concentration at 0.2%. The cell plate was further incubated at 50° C. for 30 minute. The equal volume supernatant (20 μL) and 0.2% (w/v) Ehrlich reagent (4-dimethylaminobenzaldehyde, Sigma-Aldrich) in glacial acetic acid were mixed in a new clear bottom 384-well plate. This plate was then incubated at room temperature for 30 minute. The absorbance at 490 nm was measured on Envision plate reader.
Compound IC50 values were calculated using the counts of 500 nM of a reference standard treatment as one hundred percent inhibition, and counts of no compound but DMSO treatment as zero percent inhibition.

T1 sequence (P14902 whole entry): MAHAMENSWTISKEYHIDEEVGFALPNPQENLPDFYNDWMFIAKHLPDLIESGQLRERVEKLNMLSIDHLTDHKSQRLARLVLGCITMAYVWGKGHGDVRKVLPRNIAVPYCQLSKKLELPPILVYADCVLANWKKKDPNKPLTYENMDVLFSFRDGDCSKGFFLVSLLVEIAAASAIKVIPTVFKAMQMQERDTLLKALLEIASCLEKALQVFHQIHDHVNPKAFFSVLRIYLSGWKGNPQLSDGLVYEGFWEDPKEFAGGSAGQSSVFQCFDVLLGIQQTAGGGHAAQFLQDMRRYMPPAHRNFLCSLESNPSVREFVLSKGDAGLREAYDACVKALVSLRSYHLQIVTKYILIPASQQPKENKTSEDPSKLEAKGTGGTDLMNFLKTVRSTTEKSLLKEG

SMILES	IC50 [nM]
Cc1ccc(CC(=O)NCC2CCN(c3ccnc4ccc(F)cc34)CC2)cc1 [Example 1, N-((1-(6-Fluoroquinolin-4-yl)piperidin-4-yl)methyl)-2-(p-tolyl)acetamide]	< 100
O=C(Cc1ccc(F)cc1)NCC1CCN(c2ccnc3ccc(F)cc23)CC1 [Example 2, 2-(4-Fluorophenyl)-N-((1-(6-fluoroquinolin-4-yl)piperidin-4-yl)methyl)acetamide]	< 100
O=C(Cc1ccccc1F)NCC1CCN(c2ccnc3ccc(F)cc23)CC1 [Example 3, 2-(2-Fluorophenyl)-N-((1-(6-fluoroquinolin-4-yl)piperidin-4-yl)methyl)acetamide]	< 1000
C[C@@H](CNC(=O)c1ccc(Cl)cc1)[C@H]1CC[C@@H](c2ccnc3ccc(F)cc32)CC1 [Example 4, 4-chloro-N—((R)-2-((cis)-4-(6-fluoroquinolin-4-yl)cyclohexyl)propyl)benzamide]	< 1000
C[C@@H](NC(=O)Cc1ccc(Cl)cc1)[C@H]1CC[C@@H](c2ccnc3ccc(F)cc32)CC1 [Example 5, 2-(4-chlorophenyl)-N-((R)-1-((1s,4S)-4-(6-fluoroquinolin-4-yl)cyclohexyl)ethyl)acetamide]	< 1000
C[C@@H](NC(=O)Cc1ccccc1Cl)[C@H]1CC[C@@H](c2ccnc3ccc(F)cc32)CC1 [Example 6, 2-(2-chlorophenyl)-N-((R)-1-((1s,4S)-4-(6-fluoroquinolin-4-yl)cyclohexyl)ethyl)acetamide]	< 1000
C[C@@H](NC(=O)Cc1cccc(Cl)c1)[C@H]1CC[C@@H](c2ccnc3ccc(F)cc32)CC1 [Example 7, 2-(3-chlorophenyl)-N-((R)-1-((1s,4S)-4-(6-fluoroquinolin-4-yl)cyclohexyl)ethyl)acetamide]	< 1000
C[C@H](C(=O)N[C@H](C)[C@H]1CC[C@@H](c2ccnc3ccc(F)cc32)CC1)c1ccccc1 [Example 8, (S)-N-((R)-1-((1s,4S)-4-(6-fluoroquinolin-4-yl)cyclohexyl)ethyl)-2-phenylpropanamide]	< 1000
C[C@@H](C(=O)N[C@H](C)[C@H]1CC[C@@H](c2ccnc3ccc(F)cc32)CC1)c1ccccc1 [Example 9, (R)-N-((R)-1-((1s,4S)-4-(6-fluoroquinolin-4-yl)cyclohexyl)ethyl)-2-phenylpropanamide]	< 1000
COc1ccc(CC(=O)N[C@H](C)[C@H]2CC[C@@H](c3ccnc4ccc(F)cc43)CC2)cc1 [Example 10, N-((R)-1-((1s,4S)-4-(6-fluoroquinolin-4-yl)cyclohexyl)ethyl)-2-(4-methoxyphenyl)acetamide]	< 1000
CO[C@@H](C(=O)N[C@H](C)[C@H]1CC[C@@H](c2ccnc3ccc(F)cc32)CC1)c1ccccc1 [Example 11]	< 100
C[C@@H](NC(=O)Cc1ccccc1F)[C@H]1CC[C@@H](c2ccnc3ccc(F)cc32)CC1 [Example 12, 2-(2-fluorophenyl)-N-((R)-1-((1s,4S)-4-(6-fluoroquinolin-4-yl)cyclohexyl)ethyl)acetamide]	< 1000
C[C@@H](NC(=O)C1(c2ccc(Cl)cc2)CCC1)[C@H]1CC[C@@H](c2ccnc3ccc(F)cc32)CC1 [Example 13, 1-(4-chlorophenyl)-N-((R)-1-((1s,4S)-4-(6-fluoroquinolin-4-yl)cyclohexyl)ethyl)-cyclobutanecarboxamide]	< 100
C[C@@H](NC(=O)C12CCC(Cl)(CC1)CC2)[C@H]1CC[C@@H](c2ccnc3ccc(F)cc32)CC1 [Example 14, 4-chloro-N—((R)-1-((cis)-4-(6-fluoroquinolin-4-yl)cyclohexyl)ethyl)bicyclo [2.2.2]octane-1-carboxamide]	< 100
C[C@@H](NC(=O)C1CCCCC1)[C@H]1CC[C@@H](c2ccnc3ccc(F)cc32)CC1 [Example 15, N-((R)-1-((1s,4S)-4-(6-fluoroquinolin-4-yl)cyclohexyl)ethyl)-cyclohexanecarboxamide]	< 100
C[C@@H](NC(=O)C1CC1)[C@H]1CC[C@@H](c2ccnc3ccc(F)cc32)CC1 [Example 16, N-((R)-1-((1s,4S)-4-(6-fluoroquinolin-4-yl)cyclohexyl)ethyl)-cyclopropanecarboxamide]	< 1000
C[C@@H](NC(=O)C1CC(F)(F)C1)[C@H]1CC[C@@H](c2ccnc3ccc(F)cc32)CC1 [Example 17, 3,3-difluoro-N-((R)-1-((1s,4S)-4-(6-fluoroquinolin-4-yl)cyclohexyl)ethyl)-cyclobutanecarboxamide]	< 1000
C[C@@H](NC(=O)[C@H]1C[C@H](F)C1)[C@H]1CC[C@@H](c2ccnc3ccc(F)cc32)CC1 [Example 18, (1r,3R)-3-fluoro-N-((R)-1-((1s,4S)-4-(6-fluoroquinolin-4-yl)cyclohexyl)ethyl)-cyclobutanecarboxamide]	< 1000
C[C@@H](NC(=O)[C@H]1C[C@@H](F)C1)[C@H]1CC[C@@H](c2ccnc3ccc(F)cc32)CC1 [Example 19, (1s,3S)-3-fluoro-N-((R)-1-((1s,4S)-4-(6-fluoroquinolin-4-yl)cyclohexyl)ethyl)-cyclobutanecarboxamide]	< 1000
C[C@@H](NC(=O)C1CCC1)[C@H]1CC[C@@H](c2ccnc3ccc(F)cc32)CC1 [Example 20, N-((R)-1-((1s,4S)-4-(6-fluoroquinolin-4-yl)cyclohexyl)ethyl)-cyclobutanecarboxamide]	< 1000
C[C@@H](NC(=O)[C@H]1CC[C@@H](O)CC1)[C@H]1CC[C@@H](c2ccnc3ccc(F)cc32)CC1 [Example 21, (1s,4S)-N-((R)-1-((1s,4S)-4-(6-fluoroquinolin-4-yl)cyclohexyl)ethyl)-4-hydroxycxclohexanecarboxamide]	< 1000
C[C@@H](NC(=O)[C@H]1CC[C@H](O)CC1)[C@H]1CC[C@@H](c2ccnc3ccc(F)cc32)CC1 [Example 22, (1r,4R)-N-((R)-1-((1s,4S)-4-(6-fluoroquinolin-4-y1)cyclohexyl)ethyl)-4-hydroxycxclohexanecarboxamide]	< 1000
